What was measured:
Type in all cases: cell-based
[1] = test system: Byssochlamys fulva; assay: Antimicrobial activity (MIC); conditions: Strain ID DSM 1808; potato dextrose broth pH 3.8
[2] = test system: Candida parapsilosis; assay: Antimicrobial activity (MIC); conditions: Strain ID ATCC 20384; potato dextrose broth pH 3.8
[3] = test system: Leuconostoc mesenteroides ssp. mesenteroides; assay: Antimicrobial activity (MIC); conditions: Strain ID DSM 20343; potato dextrose broth pH 3.8
[4] = test system: Staphylococcus aureus; assay: Antimicrobial activity (MIC); conditions: Strain ID DSM 2569; potato dextrose broth pH 3.8
[5] = test system: Bacillus licheniformis; assay: Antimicrobial activity (MIC); conditions: Strain ID DSM 13; potato dextrose broth pH 3.8
[6] = test system: Malassezia furfur; assay: Antimicrobial activity (MIC); conditions: Strain ID DSM 6170; potato dextrose broth pH 3.8
[7] = test system: Campylobacter jejuni; assay: Antimicrobial activity (MIC); conditions: Strain ID DSM 4688; potato dextrose broth pH 3.8
[8] = test system: Pasteurella multocida ssp. multocida; assay: Antimicrobial activity (MIC); conditions: Strain ID DSM 16031; potato dextrose broth pH 3.8
[9] = test system: Cladosporium cladosporioides; assay: Antimicrobial activity (MIC); conditions: Strain ID DSM19653; potato dextrose broth pH 3.8
[10] = test system: Zygosaccharomyces bailii; assay: Antimicrobial activity (MIC); conditions: Strain ID DSM 70834; potato dextrose broth pH 3.8
[11] = test system: Enterococcus faecalis; assay: Antimicrobial activity (MIC); conditions: Strain ID ATCC 7080; potato dextrose broth pH 3.8
[12] = test system: Candida albicans; assay: Antimicrobial activity (MIC); conditions: Strain ID ATCC10231; potato dextrose broth pH 3.8
[13] = test system: Leuconostoc lactis; assay: Antimicrobial activity (MIC); conditions: Strain ID DSM 20202; potato dextrose broth pH 3.8
[14] = test system: Bacillus cereus; assay: Antimicrobial activity (MIC); conditions: Strain ID DSM4490; potato dextrose broth pH 3.8
[15] = test system: Porphyromonas gingivalis; assay: Antimicrobial activity (MIC); conditions: Strain ID DSM 20709; potato dextrose broth pH 3.8
[16] = test system: Listeria monocytogenes; assay: Antimicrobial activity (MIC); conditions: Strain ID DSM 20600; potato dextrose broth pH 3.8
[17] = test system: Gluconacetobacter liquefaciens; assay: Antimicrobial activity (MIC); conditions: Strain ID DSM 5603; potato dextrose broth pH 3.8
[18] = test system: Alicyclobacillus acidoterrestris; assay: Antimicrobial activity (MIC); conditions: Strain ID DSM 2498; potato dextrose broth pH 3.8
[19] = test system: Pseudomonas aeruginosa; assay: Antimicrobial activity (MIC); conditions: Strain ID DSM 1117; potato dextrose broth pH 3.8
[20] = test system: Enterobacter cloacae; assay: Antimicrobial activity (MIC); conditions: Strain ID DSM 6234; potato dextrose broth pH 3.8
[21] = test system: Clostridium sporogenes; assay: Antimicrobial activity (MIC); conditions: Strain ID ATCC 19404; potato dextrose broth pH 3.8
[22] = test system: Fusobacterium nucleatum subsp. vincentii; assay: Antimicrobial activity (MIC); conditions: Strain ID DSM 19507; potato dextrose broth pH 3.8
[23] = test system: Clostridium perfringens; assay: microbe, parasite or virus in culture; conditions: Strain ID DSM 756; potato dextrose broth pH 3.8
[24] = test system: Lactobacillus paracasei ssp. paracasei; assay: Antimicrobial activity (MIC); conditions: Strain ID DSM 46331; potato dextrose broth pH 3.8
[25] = test system: Actinomyces viscosus; assay: Antimicrobial activity (MIC); conditions: Strain ID DSM43798; potato dextrose broth pH 3.8
[26] = test system: Phanerochaete chrysosporium; assay: Antimicrobial activity (MIC); conditions: Strain ID DSM 1556; potato dextrose broth pH 3.8
[27] = test system: Penicillium expansum; assay: Antimicrobial activity (MIC); conditions: Strain ID DSM 62841; potato dextrose broth pH 3.8
[28] = test system: Aspergillus brasiliensis; assay: Antimicrobial activity (MIC); conditions: Strain ID DSM 1988; potato dextrose broth pH 3.8
[29] = test system: Streptococcus mutans; assay: Antimicrobial activity (MIC); conditions: Strain ID DSM 20523; potato dextrose broth pH 3.8
[30] = test system: Lactobacillus plantarum ssp. plantarum; assay: Antimicrobial activity (MIC); conditions: Strain ID DSM 20174; potato dextrose broth pH 3.8
[31] = test system: Botrytis cinerea; assay: Antimicrobial activity (MIC); conditions: Strain ID DSM 5145; potato dextrose broth pH 3.8
[32] = test system: Yarrowia lipolytica; assay: Antimicrobial activity (MIC); conditions: Strain ID DSM 70561; potato dextrose broth pH 3.8
[33] = test system: Pseudomonas fluorescens; assay: Antimicrobial activity (MIC); conditions: Strain ID DSM50337; potato dextrose broth pH 3.8
[34] = test system: Alternaria alternata; assay: Antimicrobial activity (MIC); conditions: Strain ID DSM 12633; potato dextrose broth pH 3.8
[35] = test system: Corynebacterium xerosis; assay: Antimicrobial activity (MIC); conditions: Strain ID DSM 20743; potato dextrose broth pH 3.8
[36] = test system: Cutibacterium acnes; assay: Antimicrobial activity (MIC); conditions: Strain ID DSM 1897; potato dextrose broth pH 3.8
[37] = test system: Zygosaccharomyces rouxii; assay: Antimicrobial activity (MIC); conditions: Strain ID DSM 7525; potato dextrose broth pH 3.8
[38] = test system: Saccharomyces cerevisiae; assay: Antimicrobial activity (MIC); conditions: Strain ID DSM 2548; potato dextrose broth pH 3.8
[39] = test system: Salmonella enterica ssp. enterica Ser. typhimurium; assay: Antimicrobial activity (MIC); conditions: Strain ID DSM 17058; potato dextrose broth pH 3.8
[40] = test system: Brettanomyces naardenensis; assay: Antimicrobial activity (MIC); conditions: Strain ID CBS 6115; potato dextrose broth pH 3.8

C[C@@H]1O[C@@H](O[C@H]2[C@H](O[C@H]3CC[C@@]4(C)C(CC[C@]5(C)[C@@H]4CC=C4[C@H]6CC(C)(C)CC[C@]6(C(=O)O)CC[C@]45C)C3(C)CO)OC[C@H](O)[C@@H]2O[C@@H]2OC[C@H](O)[C@H](O)[C@H]2O)[C@H](O)[C@H](O)[C@H]1O (some centres unmarked) [B, Clemontanoside C [80666-65-5]]
Minimal Inhibitory Concentration (MIC) [1]: > 80 µg/mL | Minimal Inhibitory Concentration (MIC) [2]: > 80 µg/mL | Minimal Inhibitory Concentration (MIC) [3]: > 80 µg/mL | Minimal Inhibitory Concentration (MIC) [4]: > 80 µg/mL | Minimal Inhibitory Concentration (MIC) [5]: > 80 µg/mL | Minimal Inhibitory Concentration (MIC) [6]: 80 µg/mL | Minimal Inhibitory Concentration (MIC) [7]: > 80 µg/mL | Minimal Inhibitory Concentration (MIC) [8]: > 80 µg/mL | Minimal Inhibitory Concentration (MIC) [9]: > 80 µg/mL | Minimal Inhibitory Concentration (MIC) [10]: > 80 µg/mL | Minimal Inhibitory Concentration (MIC) [11]: > 80 µg/mL | Minimal Inhibitory Concentration (MIC) [12]: > 80 µg/mL | Minimal Inhibitory Concentration (MIC) [13]: > 80 µg/mL | Minimal Inhibitory Concentration (MIC) [14]: > 80 µg/mL | Minimal Inhibitory Concentration (MIC) [15]: > 80 µg/mL | Minimal Inhibitory Concentration (MIC) [16]: > 80 µg/mL | Minimal Inhibitory Concentration (MIC) [17]: 40 µg/mL | Minimal Inhibitory Concentration (MIC) [18]: 140 µg/mL | Minimal Inhibitory Concentration (MIC) [19]: > 80 µg/mL | Minimal Inhibitory Concentration (MIC) [20]: > 80 µg/mL | Minimal Inhibitory Concentration (MIC) [21]: 80 µg/mL | Minimal Inhibitory Concentration (MIC) [22]: > 80 µg/mL | Minimal Inhibitory Concentration (MIC) [23]: > 80 µg/mL | Minimal Inhibitory Concentration (MIC) [24]: > 80 µg/mL | Minimal Inhibitory Concentration (MIC) [25]: > 80 µg/mL | Minimal Inhibitory Concentration (MIC) [26]: > 80 µg/mL | Minimal Inhibitory Concentration (MIC) [27]: >500 µg/mL | Minimal Inhibitory Concentration (MIC) [28]: > 80 µg/mL | Minimal Inhibitory Concentration (MIC) [29]: > 80 µg/mL | Minimal Inhibitory Concentration (MIC) [30]: 400 µg/mL | Minimal Inhibitory Concentration (MIC) [31]: > 80 µg/mL | Minimal Inhibitory Concentration (MIC) [32]: > 80 µg/mL | Minimal Inhibitory Concentration (MIC) [33]: > 80 µg/mL | Minimal Inhibitory Concentration (MIC) [34]: > 80 µg/mL | Minimal Inhibitory Concentration (MIC) [35]: > 80 µg/mL | Minimal Inhibitory Concentration (MIC) [36]: > 80 µg/mL | Minimal Inhibitory Concentration (MIC) [37]: 500 µg/mL | Minimal Inhibitory Concentration (MIC) [38]: > 80 µg/mL | Minimal Inhibitory Concentration (MIC) [39]: > 80 µg/mL | Minimal Inhibitory Concentration (MIC) [40]: > 80 µg/mL

Transsylvanoside H [C, Transsylvanoside H [174423-50-8]]
Minimal Inhibitory Concentration (MIC) [1]: > 80 µg/mL | Minimal Inhibitory Concentration (MIC) [2]: > 80 µg/mL | Minimal Inhibitory Concentration (MIC) [3]: > 80 µg/mL | Minimal Inhibitory Concentration (MIC) [4]: > 80 µg/mL | Minimal Inhibitory Concentration (MIC) [5]: > 80 µg/mL | Minimal Inhibitory Concentration (MIC) [6]: > 80 µg/mL | Minimal Inhibitory Concentration (MIC) [7]: > 80 µg/mL | Minimal Inhibitory Concentration (MIC) [8]: > 80 µg/mL | Minimal Inhibitory Concentration (MIC) [9]: > 80 µg/mL | Minimal Inhibitory Concentration (MIC) [10]: > 80 µg/mL | Minimal Inhibitory Concentration (MIC) [11]: > 80 µg/mL | Minimal Inhibitory Concentration (MIC) [12]: > 80 µg/mL | Minimal Inhibitory Concentration (MIC) [13]: 80 µg/mL | Minimal Inhibitory Concentration (MIC) [14]: > 80 µg/mL | Minimal Inhibitory Concentration (MIC) [15]: > 80 µg/mL | Minimal Inhibitory Concentration (MIC) [16]: > 80 µg/mL | Minimal Inhibitory Concentration (MIC) [17]: 140 µg/mL | Minimal Inhibitory Concentration (MIC) [18]: 40 µg/mL | Minimal Inhibitory Concentration (MIC) [19]: > 80 µg/mL | Minimal Inhibitory Concentration (MIC) [20]: > 80 µg/mL | Minimal Inhibitory Concentration (MIC) [21]: 80 µg/mL | Minimal Inhibitory Concentration (MIC) [22]: 80 µg/mL | Minimal Inhibitory Concentration (MIC) [23]: > 80 µg/mL | Minimal Inhibitory Concentration (MIC) [24]: > 80 µg/mL | Minimal Inhibitory Concentration (MIC) [25]: > 80 µg/mL | Minimal Inhibitory Concentration (MIC) [26]: > 80 µg/mL | Minimal Inhibitory Concentration (MIC) [27]: >500 µg/mL | Minimal Inhibitory Concentration (MIC) [28]: > 80 µg/mL | Minimal Inhibitory Concentration (MIC) [29]: > 80 µg/mL | Minimal Inhibitory Concentration (MIC) [30]: 40 µg/mL | Minimal Inhibitory Concentration (MIC) [31]: > 80 µg/mL | Minimal Inhibitory Concentration (MIC) [32]: > 80 µg/mL | Minimal Inhibitory Concentration (MIC) [33]: > 80 µg/mL | Minimal Inhibitory Concentration (MIC) [34]: > 80 µg/mL | Minimal Inhibitory Concentration (MIC) [35]: > 80 µg/mL | Minimal Inhibitory Concentration (MIC) [36]: > 80 µg/mL | Minimal Inhibitory Concentration (MIC) [37]: 500 µg/mL | Minimal Inhibitory Concentration (MIC) [38]: > 80 µg/mL | Minimal Inhibitory Concentration (MIC) [39]: > 80 µg/mL | Minimal Inhibitory Concentration (MIC) [40]: > 80 µg/mL
